From PubChem BioAssay AID492984 (Sanford-Burnham Center for Chemical Genomics, 2010)
Calls of active or inactive are those of the source.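 How the source made its calls: active means IC50 below 20 µM in the dose response test; inactive means the rest.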

target: Type-1 angiotensin II receptor (Homo sapiens) (UniProt P30556); experiment: AT1 receptor antagonists, beta-arrestin recruitment, SAR follow-up, selectivity assay for APJ antagonist project, cell-based, CHO-K1 PathHunter, luminescence, set 3 (AID 492984); conditions: CHO-K1 AGTR1 PathHunter beta-arrestin
Sequence (P30556 whole entry, looked up): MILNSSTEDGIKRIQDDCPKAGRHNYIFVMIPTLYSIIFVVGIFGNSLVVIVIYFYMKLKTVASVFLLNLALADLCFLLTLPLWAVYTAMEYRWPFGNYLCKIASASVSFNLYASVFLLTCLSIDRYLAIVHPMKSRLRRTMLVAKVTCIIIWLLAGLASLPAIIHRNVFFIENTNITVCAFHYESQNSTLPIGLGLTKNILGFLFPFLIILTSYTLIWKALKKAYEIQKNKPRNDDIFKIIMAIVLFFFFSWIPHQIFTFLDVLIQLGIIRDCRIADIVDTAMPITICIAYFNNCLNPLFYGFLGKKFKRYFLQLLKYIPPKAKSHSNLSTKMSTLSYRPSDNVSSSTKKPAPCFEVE

Row | Compound | IC50
1 | Cc1cc(C)nc(SCc2cc(=O)c(OS(=O)(=O)c3ccccc3)co2)n1 | > 79 µM (inactive)
2 | O=C(Oc1coc(CCl)cc1=O)c1ccc(Cl)c([N+](=O)[O-])c1 | > 79 µM (inactive)
3 | Cc1ccnc(SCc2cc(=O)c(NC(=O)c3ccccc3)co2)n1 | > 79 µM (inactive)
4 | Cc1cc(C)nc(SCc2cc(=O)c(OS(=O)(=O)c3ccc([N+](=O)[O-])cc3)co2)n1 | > 79 µM (inactive)
5 | O=c1cc(CSc2ccc(F)cc2)occ1O | > 79 µM (inactive)
6 | Cc1ccnc(SCc2cc(=O)c(OC(=O)c3cccc(C#N)c3)co2)n1 | > 79 µM (inactive)
7 | O=C(Oc1coc(CSc2ncccn2)cc1=O)c1ccc([N+](=O)[O-])cc1 | > 79 µM (inactive)
